{"source": "ChEMBL document CHEMBL5500364", "about": "“Design, synthesis, and biological evaluation of some 2-(3-oxo-5,6-diphenyl-1,2,4-triazin-2(3H)-yl)-N-phenylacetamide hybrids as MTDLs for Alzheimer's disease therapy” (Eur J Med Chem, 2024)", "key": {"[1]": {"test_system": "Rattus norvegicus", "test": "(§1) Reversal of amyloid beta (1 to 42 residues) induced cognitive impairment in Wistar rat assessed as decrease in BACE-1 level in CA3 region of hippocampus at 10 mg/kg, po pretreated with amyloid beta for 7 days followed by compound administration for 9 days and measured after 5 days by immuno histochemical analysis", "assay_type": "functional, organism-based", "conditions": "time 14.0 day"}, "[2]": {"test_system": "Hippocampus", "test": "Reversal of scopolamine-induced oxidative stress in male Wistar rat brain hippocampus assessed as increase in catalase level preadministered orally with compound for 30 mins starting from 7 th day trail followed by scopolamine administration and measured after 5 mins by spectrophotometric analysis", "assay_type": "functional, tissue-based", "conditions": "dose 2.5-10 mg/kg, route po, time 35.0 min"}, "[3]": {"biological_target": "Amyloid-beta precursor protein (Homo sapiens) (UniProt P05067)", "sequence (P05067 whole entry)": "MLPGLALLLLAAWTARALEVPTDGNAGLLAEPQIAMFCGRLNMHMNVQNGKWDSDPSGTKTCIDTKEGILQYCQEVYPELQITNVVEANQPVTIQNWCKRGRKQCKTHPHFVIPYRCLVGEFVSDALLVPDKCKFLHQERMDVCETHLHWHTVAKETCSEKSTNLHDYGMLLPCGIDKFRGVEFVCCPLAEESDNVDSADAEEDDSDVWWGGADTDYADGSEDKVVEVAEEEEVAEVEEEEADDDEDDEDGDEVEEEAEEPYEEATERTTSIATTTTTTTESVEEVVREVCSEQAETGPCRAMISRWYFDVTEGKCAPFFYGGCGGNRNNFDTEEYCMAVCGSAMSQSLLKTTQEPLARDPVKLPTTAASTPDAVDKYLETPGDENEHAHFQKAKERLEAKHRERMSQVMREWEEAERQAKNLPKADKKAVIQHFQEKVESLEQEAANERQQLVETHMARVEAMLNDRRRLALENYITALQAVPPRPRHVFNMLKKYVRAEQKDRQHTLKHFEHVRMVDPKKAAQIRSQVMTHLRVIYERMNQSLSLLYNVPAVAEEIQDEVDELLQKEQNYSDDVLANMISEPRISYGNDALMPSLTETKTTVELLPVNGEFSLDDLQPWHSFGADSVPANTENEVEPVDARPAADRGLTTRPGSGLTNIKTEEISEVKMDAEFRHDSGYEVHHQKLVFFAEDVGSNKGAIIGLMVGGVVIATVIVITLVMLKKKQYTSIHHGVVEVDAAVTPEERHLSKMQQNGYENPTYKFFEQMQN", "test": "Inhibition of amyloid beta (1 to 42) (unknown origin) aggregation assessed as reduction in fluorescence intensity at 50 uM incubated for 48 hrs by confocal microscopic analysis"}, "[4]": {"test_system": "Drosophila", "test": "Neuroprotective activity in ey-GAL4>UAS-amyloid beta (1 to 42) induced cellular toxicity in Oregon R-positive Drosophila model assessed as rescue in eye phenotype at 10 uM by Stereo zoom microscopic imaging analysis relative to control", "assay_type": "functional"}, "[5]": {"biological_target": "Acetylcholinesterase (Homo sapiens, UniProt P22303)", "sequence (P22303 whole entry)": "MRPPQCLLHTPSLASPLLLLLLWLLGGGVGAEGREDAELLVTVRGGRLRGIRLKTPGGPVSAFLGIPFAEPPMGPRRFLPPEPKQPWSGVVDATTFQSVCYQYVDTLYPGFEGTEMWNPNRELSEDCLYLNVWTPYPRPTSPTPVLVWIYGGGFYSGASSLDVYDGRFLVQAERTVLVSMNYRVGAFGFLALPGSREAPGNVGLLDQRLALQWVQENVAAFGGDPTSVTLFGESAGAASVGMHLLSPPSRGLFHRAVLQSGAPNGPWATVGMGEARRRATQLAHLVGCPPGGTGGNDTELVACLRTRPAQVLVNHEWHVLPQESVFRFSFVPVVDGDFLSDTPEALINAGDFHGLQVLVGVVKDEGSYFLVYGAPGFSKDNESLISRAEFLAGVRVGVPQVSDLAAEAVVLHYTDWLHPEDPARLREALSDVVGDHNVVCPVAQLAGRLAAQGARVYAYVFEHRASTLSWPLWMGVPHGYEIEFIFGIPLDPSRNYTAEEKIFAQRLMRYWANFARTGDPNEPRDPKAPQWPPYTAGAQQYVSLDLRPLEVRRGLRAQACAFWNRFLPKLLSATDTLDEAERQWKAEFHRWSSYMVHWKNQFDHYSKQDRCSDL", "test": "Mixed type non-competitive inhibition of human erythrocyte AChE using acetylthiocholine iodide as substrate assessed as dissociation constant by dixon plot analysis"}, "[6]": {"biological_target": "Amyloid-beta precursor protein (Homo sapiens) (UniProt P05067)", "test": "Inhibition of amyloid beta (1 to 42) (unknown origin) aggregation assessed as reduction in amyloid-beta aggregates at 50 uM incubated for 48 hrs by TEM analysis"}, "[7]": {"test": "Acute toxicity in Wistar rat assessed as maximum tolerated dose administered orally for 14 days", "conditions": "in vivo, route po, time 14 day"}, "[8]": {"test_system": "Hippocampus", "test": "Reversal of scopolamine-induced oxidative stress in male Wistar rat brain hippocampus assessed as increase in GSH level preadministered orally with compound for 30 mins starting from 7 th day trail followed by scopolamine administration and measured after 5 mins", "assay_type": "functional, tissue-based", "conditions": "dose 2.5-10 mg/kg, route po, time 35.0 min"}, "[9]": {"test_system": "Rattus norvegicus", "test": "as §1, with “amyloid” for “BACE-1”, “DG” for “CA3”", "assay_type": "functional, organism-based", "conditions": "time 14.0 day"}, "[10]": {"test_system": "SH-SY5Y", "test": "Neuroprotective activity against amyloid-beta(1 to 42) induced oxidative stress in differentiated human SH-SY5Y cells assessed as increase in cell viability at 40 uM preincubated with amyloid-beta (1 to 42 ) for 24 hrs followed by compound addition and measured after 72 hrs by MTT assay relative to control", "assay_type": "functional"}, "[11]": {"biological_target": "Cholinesterase (Homo sapiens, UniProt P06276)", "sequence (P06276 whole entry)": "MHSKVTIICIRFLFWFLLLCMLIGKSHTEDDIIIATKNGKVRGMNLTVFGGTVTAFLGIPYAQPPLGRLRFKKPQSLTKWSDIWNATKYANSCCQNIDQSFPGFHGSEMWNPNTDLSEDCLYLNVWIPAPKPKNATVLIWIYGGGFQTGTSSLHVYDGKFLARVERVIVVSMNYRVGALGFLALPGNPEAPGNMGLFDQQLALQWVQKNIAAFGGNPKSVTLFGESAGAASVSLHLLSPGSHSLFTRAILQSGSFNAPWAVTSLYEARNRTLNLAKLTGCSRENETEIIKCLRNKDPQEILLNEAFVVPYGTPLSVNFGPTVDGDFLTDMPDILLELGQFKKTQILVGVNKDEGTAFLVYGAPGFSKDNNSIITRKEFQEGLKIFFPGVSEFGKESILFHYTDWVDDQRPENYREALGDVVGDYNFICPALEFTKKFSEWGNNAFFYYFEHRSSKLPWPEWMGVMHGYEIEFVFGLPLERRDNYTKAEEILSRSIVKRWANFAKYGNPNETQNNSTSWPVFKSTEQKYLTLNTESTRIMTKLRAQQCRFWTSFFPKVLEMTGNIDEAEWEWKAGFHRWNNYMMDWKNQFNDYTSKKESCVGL", "test": "Inhibition of human BChE using butyrylthiocholine iodide as substrate preincubated for 30 mins followed by substrate addition by DTNB based Ellman's colorimetric method"}, "[12]": {"test_system": "Rattus norvegicus", "test": "Reversal of amyloid beta (1 to 42 residues) induced cognitive impairment in Wistar rat assessed as decrease in BACE-1 protein level at 10 mg/kg, po pretreated with amyloid beta for 7 days followed by compound administration for 9 days and measured after 5 days by Western blot analysis", "assay_type": "functional, organism-based", "conditions": "time 14.0 day"}, "[13]": {"test_system": "Rattus norvegicus", "test": "Antialzheimer activity against scopolamine-induced amnesia in male Wistar rat model assessed as restoration of memory function by measuring percentage spontaneous alteration at 2.5 to 10 mg/kg, po preadministered with compound for 30 mins starting from 7 th day trail followed by scopolamine administration and measured after 5 mins by Y maze test", "assay_type": "functional, organism-based", "conditions": "dose 2.5-10 mg/kg, time 35.0 min"}, "[14]": {"test_system": "Rattus norvegicus", "test": "Reversal of amyloid beta (1 to 42 residues) induced cognitive impairment in Wistar rat assessed as decrease in Tau protein level at 10 mg/kg, po pretreated with amyloid beta for 7 days followed by compound administration for 9 days and measured after 5 days by Western blot analysis", "assay_type": "functional, organism-based", "conditions": "time 14.0 day"}, "[15]": {"test_system": "Rattus norvegicus", "test": "as §1, with “CA1” for “CA3”", "assay_type": "functional, organism-based", "conditions": "time 14.0 day"}, "[16]": {"test": "Acute toxicity in Wistar rat assessed as effect on central vein appearance in liver at 500 to 1000 mg/kg, po administered for 14 days by histopathological analysis", "assay_type": "organism-based", "conditions": "in vivo, 336 h, dose 500-1000 mg/kg, time 14 day"}, "[17]": {"test_system": "Rattus norvegicus", "test": "Reversal of amyloid beta (1 to 42 residues) induced cognitive impairment in Wistar rat assessed as decrease in APP protein level at 10 mg/kg, po pretreated with amyloid beta for 7 days followed by compound administration for 9 days and measured after 5 days by Western blot analysis", "assay_type": "functional, organism-based", "conditions": "time 14.0 day"}, "[18]": {"test_system": "Rattus norvegicus", "test": "Reduction in AChE level in scopolamine-induced male Wistar rat brain hippocampus preadministered with compound orally for 30 mins starting from 7 th day trail followed by scopolamine administration and measured after 5 mins by Ellman's method", "assay_type": "functional, tissue-based", "conditions": "dose 2.5-10 mg/kg, route po, time 35.0 min"}, "[19]": {"test_system": "Rattus norvegicus", "test": "Reversal of amyloid beta (1 to 42 residues) induced cognitive impairment in Wistar rat assessed as increase in platform crossings at 10 mg/kg, po pretreated with amyloid beta for 7 days followed by compound administration for 9 days and measured after 5 days by Morris water maze test", "assay_type": "functional, organism-based", "conditions": "time 14.0 day"}, "[20]": {"test_system": "Rattus norvegicus", "test": "Upregulation of ACh level in scopolamine-induced male Wistar rat brain hippocampus preadministered with compound orally for 30 mins starting from 7 th day trail followed by scopolamine administration and measured after 5 mins by GENELISA", "assay_type": "functional, tissue-based", "conditions": "dose 2.5-10 mg/kg, route po, time 35.0 min"}, "[21]": {"test": "Toxicity in wildtype Oregon R-positive Drosophila assessed as eclosion at 10 uM pretreated for 5 days and measured for 15 days relative to control", "conditions": "480 h, time 20 day"}, "[22]": {"biological_target": "Amyloid-beta precursor protein (Homo sapiens) (UniProt P05067)", "test": "Inhibition of amyloid beta (1 to 42) (unknown origin) aggregation assessed as reduction in size of amyloid-beta aggregates measured within 48 hrs by SEM imaging analysis"}, "[23]": {"test_system": "Hippocampus", "test": "Reversal of scopolamine-induced oxidative stress in male Wistar rat brain hippocampus assessed as decrease in MDA level at 2.5 to 10 mg/kg, po preadministered with compound for 30 mins starting from 7 th day trail followed by scopolamine administration and measured after 5 mins by TBARS assay", "assay_type": "functional, organism-based", "conditions": "dose 2.5-10 mg/kg, time 35.0 min"}, "[24]": {"test": "Toxicity in wildtype Oregon R-positive Drosophila assessed as reduction in eclosion at 100 to 200 uM pretreated for 5 days and measured for 15 days", "conditions": "480 h, dose 100-200 µM, time 20 day"}, "[25]": {"test": "Tmax in male Wistar rat at 10 mg/kg, po measured after 72 hrs by HPLC analysis", "assay_type": "ADME, organism-based", "conditions": "in vivo"}, "[26]": {"test": "Toxicity in wildtype Oregon R-positive Drosophila assessed as cell viability in gut at 10 uM by MTT assay relative to control", "assay_type": "tissue-based", "conditions": "read-out: Activity"}, "[27]": {"test": "Acute toxicity in Wistar rat assessed as body weight loss at 500 to 1000 mg/kg, po measured for 2 to 3 days relative to control", "assay_type": "organism-based", "conditions": "in vivo, dose lower 500 mg/kg, time lower 2 day, dose upper 1000 mg/kg, time upper 3 day"}, "[28]": {"test": "Toxicity in wildtype Oregon R-positive Drosophila assessed as cell viability in gut at 5 uM by MTT assay relative to control", "assay_type": "tissue-based", "conditions": "read-out: Activity"}, "[29]": {"test": "Toxicity in wildtype Oregon R-positive Drosophila assessed as cell viability in gut at 50 uM by MTT assay relative to control", "assay_type": "tissue-based", "conditions": "read-out: Activity"}, "[30]": {"biological_target": "Amyloid-beta precursor protein (Homo sapiens) (UniProt P05067)", "test": "Inhibition of amyloid beta (1 to 42) (unknown origin) self aggregation ar 5 to 20 uM incubated for 48 hrs by Thioflavin T fluorescence assay relative to control", "conditions": "dose 5-20 µM"}, "[31]": {"biological_target": "Dual specificity tyrosine-phosphorylation-regulated kinase 1A (Homo sapiens, UniProt Q13627)", "test": "Inhibition of Dyrk1A (unknown origin) incubated for 1 hrs in presence of [gamma-33P]-ATP by microplate scintillation counter based radiometric protein kinase assay"}, "[32]": {"test_system": "Rattus norvegicus", "test": "as §1, with “DG” for “CA3”", "assay_type": "functional, organism-based", "conditions": "time 14.0 day"}}, "note": "The source made the active and inactive calls. No cut-off for these calls is given here.", "data": [{"compound": "COc1cc(NC(=O)Cn2nc(-c3ccccc3)c(-c3ccccc3)nc2=O)cc(OC)c1", "values": [{"measurement": "Activity", "setting": "[1]", "result": "Active"}, {"measurement": "Activity", "setting": "[2]", "result": "Dose-Dependent Effect"}, {"measurement": "inhibition", "setting": "[3]", "result": "Active"}, {"measurement": "Activity", "setting": "[4]", "result": 21, "unit": "%"}, {"measurement": "Kd", "setting": "[5]", "result": 0.412, "unit": "µM"}, {"measurement": "inhibition", "setting": "[6]", "result": "Active"}, {"measurement": "MTD at 336 h", "setting": "[7]", "result": 1000, "unit": "mg/kg"}, {"measurement": "Activity", "setting": "[8]", "result": "Dose-Dependent Effect"}, {"measurement": "Activity", "setting": "[9]", "result": "Active"}, {"measurement": "Activity", "setting": "[10]", "result": 82, "unit": "%"}, {"measurement": "IC50", "setting": "[11]", "result": "> 10", "unit": "µM"}, {"measurement": "Activity", "setting": "[12]", "result": "Active"}, {"measurement": "Activity", "setting": "[13]", "result": "Active"}, {"measurement": "Activity", "setting": "[14]", "result": "Active"}, {"measurement": "Activity", "setting": "[15]", "result": "Active"}, {"measurement": "Activity", "setting": "[16]", "result": "Non-Toxic"}, {"measurement": "Activity", "setting": "[17]", "result": "Active"}, {"measurement": "Activity", "setting": "[18]", "result": "Dose-Dependent Effect"}, {"measurement": "Activity", "setting": "[19]", "result": "Active"}, {"measurement": "Activity", "setting": "[20]", "result": "Dose-Dependent Effect"}, {"measurement": "Activity", "setting": "[21]", "result": 85, "unit": "%"}, {"measurement": "inhibition", "setting": "[22]", "result": "Active"}, {"measurement": "Activity", "setting": "[23]", "result": "Active"}, {"measurement": "Activity", "setting": "[24]", "result": "Toxic"}, {"measurement": "Tmax", "setting": "[25]", "result": 9, "unit": "h"}, {"measurement": "viability at 10 µM", "setting": "[26]", "result": 78, "unit": "%"}, {"measurement": "Activity", "setting": "[27]", "result": 7, "unit": "%"}, {"measurement": "viability at 5 µM", "setting": "[28]", "result": 97, "unit": "%"}, {"measurement": "viability at 50 µM", "setting": "[29]", "result": 38, "unit": "%"}, {"measurement": "inhibition", "setting": "[30]", "result": 23.6, "unit": "%"}, {"measurement": "IC50", "setting": "[31]", "result": "> 10", "unit": "µM"}, {"measurement": "Activity", "setting": "[32]", "result": "Active"}]}]}
